# Measurements as given in publication PMC12475274, “Harnessing indole scaffolds to identify small-molecule IRE1α inhibitors modulating XBP1 mRNA splicing” (Nature Communications, 2025).
# Values joined by “and” are separate entries in the source; they are usually repeats but may differ in a detail not shown here. Equal entries are not always repeated. “Also recorded” adds a separate entry of the source. Where two headings read alike, the source gives them in different places.
# Tests used:
# [1] = tested on: IRE1α protein in A549 cells; assay: Western blot of IRE1α protein level, A549; format: cell-based, human
# Description: (§1) A549 cells and MDA-MB-231 Cells were harvested and seeded into 6-well plates with a density of 8 × 10^5 cells per well and cultured overnight. […]. Protein concentrations were measured using a BCA protein assay kit (Thermo Scientific, 23227) and all samples were diluted to the same protein concentration. Each sample with 40 μg of total protein was loaded onto a 4–15% MP stain-free gel (Bio-Rad, 4568085) and separated in tris-glycine-SDS running buffer. The proteins were transferred onto a 0.45 μm PVDF membrane (Bio-Rad, 1704274) using the Trans-Blot Turbo Transfer System with the preprogrammed standard SD protocol (up to 1.0 A; 25 V; 30 min). Membranes were blocked with 5% skim milk (Roth, T145.2) in PBST buffer, then incubated with primary antibody IRE1α (Cell Signaling Technology, #3294 s, 1:1000), XBP1s (Cell Signaling Technology, #12782 s, 1:1000) GAPDH (Proteintech, 10494-1-AP, 1:6000) overnight at 4 °C with shaking. After incubation, membranes were washed with PBST and incubated with the Goat Anti-Rabbit (Proteintech, SA00001-2, 1:6000) antibody at room temperature for 1 h. After washing with PBST, the membranes were visualized using Amersham ECL Prime Western Blotting Detection Kit (Cytiva, RPN2232) and imaged with a ChemiDoc MP imaging system (Bio-Rad).
# [2] = tested on: IRE1α protein in MDA-MB-231 cells; assay: Western blot of IRE1α protein level, MDA-MB-231; format: cell-based, human
# Description: as §1
# IRE1α (ERN1) = IRE1α (ERN1) (Homo sapiens, UniProt O75460); assay: LanthaScreen Eu kinase binding assay, IRE1α; conditions: for inhibition at 5.56 µM: Conc. 5560 nM; for inhibition at 5.56 µM / inhibition at 16.7 µM / inhibition at 50 µM: duplicates; for inhibition at 16.7 µM: Conc. 16700 nM; for inhibition at 50 µM: Conc. 50000 nM
# Description: LanthaScreen^TM Eu kinase binding assays were conducted by SelectScreen Kinase Profiling Services (Thermo Fisher) using Alexa Fluor conjugated kinase tracer, tagged kinase protein, and Eu-labeled anti-tag antibody. The binding of the tracer to the kinase will form the tracer-kinase complex, resulting in a high FRET signal with the Eu-labeled anti-tag antibody. Displacement of the tracer by a kinase inhibitor led to a decreased FRET signal. […] Buffer A containing 50 mM HEPES pH 7.5, 0.01% BRIJ-35, 10 mM MgCl2, and 1 mM EGTA was used.
# Kinase profiling was conducted by the SelectScreen Kinase Profiling Services (Thermo Fisher), using Z′-LYTE, Adapta, or LanthaScreen Eu Kinase Binding Assay for different kinases. The kinome phylogenetic tree was generated using the KinMap web portal.
# [3] = tested on: XBP1 mRNA splicing in A549 cells; assay: RT-qPCR of ER stress-induced XBP1 mRNA splicing, A549; format: cell-based, human; conditions: for Relative XBP1s/Actin: Fig. 7a, 0.5μg/mL Tm, individual replicates
# Description: A549 cells, HCT 116 cells, and HT-29 cells were collected and seeded in 6-well plates at a density of 5 × 10^5 cells per well and cultured overnight to attach, then treated with compound or DMSO for 2 h, then 0.5 μg/mL final concentration of tunicamycin (Tm, MP Biomedi, 0215002805) were added to induce the ER stress for 2 h. After treatment, total RNA was purified using an RNeasy mini kit (Qiagen, 74106). 500 ng of total RNA was used for reverse transcription using the High-Capacity cDNA Reverse Transcription Kits (Thermo Fisher, 4368814). cDNA was diluted 1: 5 using RNase-free water, and 1 μL CDNA was used for each qPCR reaction. The qPCR was performed using PowerUp™ SYBR™ Green Master Mix (Thermo Fisher, A25742) with 10 µL reaction volume using Bio-Rad CFX96 Real-Time PCR Detection System following the standard cycling mode (primer Tm ≥ 60 °C) on the manufacturer’s protocol. Data was analyzed using the 2^- ΔΔCt method. The primers used are listed in Supplementary Table S3. The inhibition % was calculated by using the equation: inhibition% = 100× (normalized Tm control - normalized of the sample)/(normalized Tm control - normalized DMSO control). Tm control: Cells treated with tunicamycin; DMSO control: Cells treated with DMSO only.
# HT-29 cells = assay: Cell viability assay (CCK-8), HT-29; format: cell-based, human; conditions: HT-29; for inhibition at 50 µM: Homo sapiens, read-out: antiproliferation, inhibition at highest tested concentration
# Description: Cells were collected and seeded into 96-well plates at a density of 2000–4000 cells per well and cultured overnight to allow cells to adhere. After adherence, cells were treated with the indicated compounds for 72 h. Then 20 μL CCK-8 solution (Vazyme, A311) was added into each well and incubated at 37 °C for 2–4 h. Absorbance was detected at a wavelength of 450 nm using a TECAN plate reader. Cell viability was calculated with the equation: Cell viability (%) = 100(Absorbance of treated cell - Absorbance of Blank control)/ (Absorbance of DMSO-treated cells - Absorbance of Blank control); Blank control: medium and CCK-8 solution, no cells.
# p-IRE1α = molecular target: T1, p-IRE1α (Homo sapiens, UniProt O75460); assay: Gel-based RNA-cleavage assay; format: biochemical
# T1 construct: Human IRE1α kinase and RNase domain (residues 547–977) was subcloned into pLIB plasmid; His tag (with TEV cleavage site) (N, cleaved yes); made in house; host or cells: Sf9 insect cells, baculovirus (Bac-to-Bac)
# Description: Purified p-IRE1α with a final concentration of 10 nM was preincubated with the indicated compounds for 30 min at room temperature, then 50 nM FAM and BHQ-labeled XBP1 substrate were added to the reaction. The reaction was further incubated for 45 min at room temperature and then mixed with 6× TBE loading dye (45% H2O, 40 % glycerol, 15% 10× TBE, 0.1% bromphenol blue). 5 μL sample was loaded to 15% pre-runed urea-PAGE, and the gel was run in pre-warmed (~60 °C) 1× TBE buffer buffer in the dark. The gel fluorescence was detected and imaged using the ChemiDoc MP imaging system (Bio-Rad).
# [4] = read-out: IRE1a Kinase Displacement(%)
# [5] = IRE1α kinase domain, read-out: IC50 (kinase binding), LanthaScreen Eu kinase binding
# Chain of IRE1α (ERN1) (O75460 19-977): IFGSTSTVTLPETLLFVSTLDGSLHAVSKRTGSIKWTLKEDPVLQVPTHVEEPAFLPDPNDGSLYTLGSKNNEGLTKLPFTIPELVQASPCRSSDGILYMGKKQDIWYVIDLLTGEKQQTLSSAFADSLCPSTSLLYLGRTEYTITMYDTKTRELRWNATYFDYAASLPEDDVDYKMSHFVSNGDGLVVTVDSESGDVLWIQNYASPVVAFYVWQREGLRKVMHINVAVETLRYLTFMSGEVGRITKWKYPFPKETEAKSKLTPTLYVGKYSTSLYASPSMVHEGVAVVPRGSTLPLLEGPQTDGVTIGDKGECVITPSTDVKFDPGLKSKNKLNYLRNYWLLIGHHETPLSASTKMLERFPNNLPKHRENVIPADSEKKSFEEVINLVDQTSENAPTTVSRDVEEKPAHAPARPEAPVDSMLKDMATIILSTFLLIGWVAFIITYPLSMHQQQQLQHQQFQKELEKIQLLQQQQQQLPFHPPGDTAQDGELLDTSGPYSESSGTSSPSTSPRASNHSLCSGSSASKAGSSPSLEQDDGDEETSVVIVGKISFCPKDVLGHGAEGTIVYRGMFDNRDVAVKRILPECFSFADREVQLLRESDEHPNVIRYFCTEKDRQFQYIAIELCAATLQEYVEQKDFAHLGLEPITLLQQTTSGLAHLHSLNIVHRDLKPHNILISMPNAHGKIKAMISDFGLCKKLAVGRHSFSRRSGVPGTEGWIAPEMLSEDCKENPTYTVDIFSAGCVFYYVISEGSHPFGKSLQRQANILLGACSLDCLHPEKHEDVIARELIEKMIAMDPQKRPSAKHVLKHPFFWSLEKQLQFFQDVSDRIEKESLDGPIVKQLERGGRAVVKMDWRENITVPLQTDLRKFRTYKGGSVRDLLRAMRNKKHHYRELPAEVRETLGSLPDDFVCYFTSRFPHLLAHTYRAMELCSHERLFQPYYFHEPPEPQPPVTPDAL
# T1 sequence (O75460 547-977): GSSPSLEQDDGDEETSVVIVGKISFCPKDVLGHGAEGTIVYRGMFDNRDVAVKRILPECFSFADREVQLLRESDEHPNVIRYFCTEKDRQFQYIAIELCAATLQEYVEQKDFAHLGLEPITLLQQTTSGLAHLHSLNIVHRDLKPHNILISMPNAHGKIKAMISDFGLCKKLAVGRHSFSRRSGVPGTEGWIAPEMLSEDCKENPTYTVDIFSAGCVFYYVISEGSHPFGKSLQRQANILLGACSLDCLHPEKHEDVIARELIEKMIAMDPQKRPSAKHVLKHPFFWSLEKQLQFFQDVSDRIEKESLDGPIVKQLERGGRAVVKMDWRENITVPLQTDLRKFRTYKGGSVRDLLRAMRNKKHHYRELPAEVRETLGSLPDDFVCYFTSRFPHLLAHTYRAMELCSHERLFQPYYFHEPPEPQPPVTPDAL
Structure (SMILES),effect on IRE1α protein level [1],effect on IRE1α protein level [2],cytotoxicity (HT-29 cells),inhibition at 50 µM (HT-29 cells) [%],inhibition of p-IRE1α RNase activity in gel-based cleavage assay (p-IRE1α),inhibition at 5.56 µM (IRE1α (ERN1); [4]) [%],inhibition at 16.7 µM (IRE1α (ERN1); [4]) [%],inhibition at 50 µM (IRE1α (ERN1); [4]) [%],IC50 (IRE1α (ERN1); [5]) [nM],also measured
"CCOC(=O)Nc1cccc2c(Oc3ncccc3-c3ccnc(N[C@H]4CCCNC4)n3)c(C)ccc12 [Compound G1749, reference compound]",did not affect,did not affect,,,,,,,,
Cc1ccc2c(NS(=O)(=O)c3ccccc3Cl)cccc2c1Oc1ncccc1-c1ccnc(N[C@H]2CCCNC2)n1 [KIRA8],did not affect,did not affect,,,,,,,,
CCOC(=O)CCc1c(C)n(C(=O)c2ccccc2)c2ccc(Br)cc12 [IAPD1],did not affect,did not affect,did not show cytotoxicity,< 30,,,,,,"binding to IRE1α kinase domain in LanthaScreen assay (IRE1α (ERN1)): did not show any detectable activity; inhibition at 0.0686 µM (IRE1α (ERN1); 0.0686 μM, read-out: IRE1a Kinase Displacement(%)): 11.5%; binding to IRE1α kinase domain in LanthaScreen assay (IRE1α (ERN1); listed as IADP1): did not show any detectable; IC50 (IRE1α (ERN1); read-out: IC50 (Kinase), LanthaScreen kinase binding/displacement): > 50000 nM; IC50 ([3]; Homo sapiens, A549 cells, tunicamycin, read-out: cellular IC50, ER stress-induced XBP1 mRNA splicing): 180 nM; improvement of the cellular activity in inhibiting XBP1 mRNA splicing ([3]; prodrug versus IA107): 50 fold"
COc1ccc2c(c1)c(CCC(=O)O)c(C)n2C(=O)c1ccccc1 [IA64],,,,,inhibited p-IRE1α activity; also recorded: concentration-dependently inhibited,104,98,109,1100,
Cc1c(CCC(=O)O)c2cc(Br)ccc2n1C(=O)c1ccccc1 [IA107],,,did not show cytotoxicity,< 30,concentration-dependently inhibited,88,94,96,768,"inhibition at 5 µM (IRE1α (ERN1); kinase profiling, ERN1, LanthaScreen Binding, IA107 at 5 μM): 91%; inhibition of ER stress-induced XBP1 mRNA splicing ([3]; A549 cells, 2 h pre-treatment, 2 h tunicamycin): concentration-dependently inhibited; Relative XBP1s/Actin ([3]; 5 μM): 3.514 and 3.6054 and 3.452 and 3.1438; Relative XBP1s/Actin ([3]; 10 μM): 3.066 and 2.696 and 2.897 and 2.792; Relative XBP1s/Actin ([3]; 25 μM): 2.48 and 2.329 and 2.338 and 2.263; Relative XBP1s/Actin ([3]; 50 μM): 1.745 and 1.521 and 1.514 and 1.455"
COc1ccc2c(c1)c(CCC(=O)O)c(C)n2C(=O)c1ccc(Cl)cc1 [IA01],,,,,concentration-dependently inhibited,50,63,70,2470,
